Results taken from PMC11079024, “Identification of a family of species-selective complex I inhibitors as potential anthelmintics” (Nature Communications, 2024).
Where “and” joins values, the source holds several entries; their conditions need not be identical. Equal values may be shown once. Read-outs that look alike come from different tables or passages of the source.

Legend:
L1 wild-type C. elegans = conditions: for Relative Motility: relative to DMSO controls, single biological replicate
[1] = target: C. elegans (N2) complex I (NADH:ubiquinone oxidoreductase) (Caenorhabditis elegans, UniProt P24887+Q93873+Q94360); experiment: biochemical; format: biochemical; conditions: for percent (%) in vitro complex I activity relative to solvent control: mitochondria
Description: Mitochondria were isolated from the following free-living nematode strains: C. elegans—N2, CB3474, ECA882, ECA917, ECA1075, ECA1080; C. briggsae—AF16; P. pacificus—PS312; and P. hermaphrodita—B178. With the exception of the P. hermaphrodita strain B178, adult worms of each strain were grown in bulk through liquid culture to obtain mitochondria in sufficient quantities. Due to poor growth in liquid media, mixed stage populations of P. hermaphrodita were washed off and collected from NGM plates seeded with OP50. The isolation of mitochondria from all free-living nematode strains followed the protocol previously outlined in Burns et al.[24]. In brief, a 1 L saturated culture of E. coli HB101 was concentrated 20-fold in 50 mL complete S-medium. ~500,000 L1 worms synchronized from an embryo preparation performed the day prior were added to the S-media/HB101 suspension and grown to adulthood over the course of 3.5 days at 20 °C with shaking at 165 rpm. Following growth, worms were collected in 10 ×15 mL conical tubes and washed 7 times in M9 buffer. Worm suspensions were then combined into a single 15 mL conical tube and diluted to a final volume of 15 mL with M9 buffer. 1 mL aliquots of worm suspension were then distributed to 15 × 1.5 mL screw-cap microcentrifuge tubes and were pelleted at 500 g for 1 min. Excess M9 was aspirated without disturbing the worm pellet. 600 μL ice-cold isolate buffer A (250 mM sucrose, 10 mM Tris (pH 7.5), 1 mM EDTA, 1 mM PMSF (freshly prepared)) and 300 μL cold glass beads were then added to each tube. Tubes were incubated on ice for 10 min, and the worms were then lysed by bead beating (6 x 30 s, with 1 min cooling intervals). Tubes containing worm lysate were centrifuged at 1,000 g for 10 min at 4 °C and the supernatant was transferred to 15 new microcentrifuge tubes on ice. The tubes were centrifuged a second time at 1,000 g for 10 min at 4 °C and the supernatant was once again transferred to 15 new microcentrifuge tubes on ice. These tubes were then centrifuged at 16,000 g for 10 min at 4 °C. The resulting mitochondrial pellet was washed twice by re-suspension in 300 μL of ice-cold isolate buffer B (250 mM sucrose, 10 mM Tris (pH 7.5), 1 mM EDTA). Following the final wash, isolation buffer was aspirated from each tube and the pellets were flash-frozen in ethanol/dry ice and stored at −80 °C until needed.
(§1) The enzymatic activities of individual ETC complexes (I-IV) were assessed spectrophotometrically in isolated mitochondria using a Varioskan LUX Multimode plate reader (ThermoFisher Scientific). Mitochondrial pellets previously isolated were thawed on ice and resuspended in ice-cold isolation buffer (250 mM sucrose, 10 mM Tris (pH 7.5), 1 mM EDTA). The BCA assay (Walker, 1994) was used to quantify the protein concentration of mitochondria suspensions; solutions were diluted to a concentration of 0.2 mg/mL for use in all assays. For the complex I assay, mitochondria pellets were freeze-thawed on ice three times to increase enzyme accessibility. […] 20 μL mitochondria suspension was then added/mixed with a pipette to initiate the reaction. Immediately following the addition of mitochondria, absorbance was measured (complex I and II: 600 nm; complex III and IV: 550 nm) in 30 s intervals over 15 min. Enzymatic activity was determined in each reaction by plotting absorbance versus time and calculating the slope of the curve during the initial linear phase of the reaction. […] Percent activity of each complex was calculated by dividing the enzyme-specific activity of each well by the enzyme-specific activity of the corresponding solvent controls.
(§2) Chemical solutions were prepared in complex I assay buffer composed of 25 mM KPi buffer (pH 7.5), 3 mg/mL bovine serum albumin (BSA), 80 μM NADH, 60 μM decylubiquinone, 160 μM DCIP, 2 μM antimycin A and 2 mM KCN.
For preliminary screens of hit compounds, compounds were screened at 100 μM; data are the average of at least three biological replicates.

[2] = target: B. taurus (heart) complex I (Bos taurus, UniProt P03887+P17694+P42026); experiment: biochemical; format: biochemical; conditions: heart mitochondria; read-out: B. taurus Complex I IC50
Description: Six 8–10-week-old C57Bl/6 female mice (Charles River) were freshly dissected, and their livers and hearts collected into separate 1.5 mL microcentrifuge tubes. Organs were flash-frozen in liquid nitrogen and stored at −80 °C prior to use. The heart of a freshly slaughtered adult cow was obtained from a local abattoir (Peel Sausage Inc.), chopped into ~1-inch cubes and collected into 50 mL falcon tubes. Falcon tubes were flash-frozen in a container of dry ice and stored at −80 °C prior to use. Isolation of mitochondria from all mammalian tissue was carried out following the protocol described above. However, due to size, the initial homogenization of tissue was performed by 15 strokes in a dounce homogenizer (mouse heart) or with several 5 s pulses in small Nutribullet blender (cow heart). All mouse protocols for mouse care and dissection were reviewed and approved by the University of Toronto Animal Care Committee, in accordance with the Canadian Council on Animal Care.
as §1, §2
For preliminary screens of hit compounds, compounds were screened at 100 μM; data are the average of at least three biological replicates. The complex I and II activity assays were used for additional dose-response experiments. […] For dose responses of benzimidazole analogs, data represent the average of two biological replicates. For all other dose-responses, data represent the average of at least three biological replicates.

[3] = 50 μM, hit = relative motility below 0.25 3 hours after the removal of KCN
[4] = 50 μM, worm motility 3 hours after the removal of KCN (endpoint)
[5] = 50 μM, hit = relative motility below 0.25 3 hours after removal of KCN
[6] = 50 μM, worm motility 3 hours after removal of KCN
[7] = 50 μM, KCN survival assay, hit = relative motility below 0.25
[8] = active (hit) or inactive (non) at 50 μM in C. elegans assay of RQ-dependent metabolism
[9] = active or inactive at 50 μM in C. elegans assay of RQ-dependent metabolism
[10] = read-out: percent (%) in vitro complex I activity relative to solvent control

Chain of C. elegans (N2) complex I (NADH:ubiquinone oxidoreductase) (Q94360 17-199): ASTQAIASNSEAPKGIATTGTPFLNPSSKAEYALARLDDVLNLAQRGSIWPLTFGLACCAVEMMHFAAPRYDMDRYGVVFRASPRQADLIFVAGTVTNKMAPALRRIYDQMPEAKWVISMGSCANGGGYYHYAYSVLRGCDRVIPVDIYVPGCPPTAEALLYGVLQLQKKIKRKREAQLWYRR
Chain of C. elegans (N2) complex I (NADH:ubiquinone oxidoreductase) (P24887 whole entry): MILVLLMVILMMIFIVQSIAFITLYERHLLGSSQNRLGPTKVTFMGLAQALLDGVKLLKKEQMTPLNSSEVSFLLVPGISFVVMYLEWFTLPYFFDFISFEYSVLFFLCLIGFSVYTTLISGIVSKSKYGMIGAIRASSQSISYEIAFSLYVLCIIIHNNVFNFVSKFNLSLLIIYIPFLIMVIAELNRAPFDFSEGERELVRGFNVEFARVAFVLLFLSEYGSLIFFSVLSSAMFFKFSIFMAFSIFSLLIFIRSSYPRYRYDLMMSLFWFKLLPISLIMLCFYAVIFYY
Chain of C. elegans (N2) complex I (NADH:ubiquinone oxidoreductase) (Q93873 31-482): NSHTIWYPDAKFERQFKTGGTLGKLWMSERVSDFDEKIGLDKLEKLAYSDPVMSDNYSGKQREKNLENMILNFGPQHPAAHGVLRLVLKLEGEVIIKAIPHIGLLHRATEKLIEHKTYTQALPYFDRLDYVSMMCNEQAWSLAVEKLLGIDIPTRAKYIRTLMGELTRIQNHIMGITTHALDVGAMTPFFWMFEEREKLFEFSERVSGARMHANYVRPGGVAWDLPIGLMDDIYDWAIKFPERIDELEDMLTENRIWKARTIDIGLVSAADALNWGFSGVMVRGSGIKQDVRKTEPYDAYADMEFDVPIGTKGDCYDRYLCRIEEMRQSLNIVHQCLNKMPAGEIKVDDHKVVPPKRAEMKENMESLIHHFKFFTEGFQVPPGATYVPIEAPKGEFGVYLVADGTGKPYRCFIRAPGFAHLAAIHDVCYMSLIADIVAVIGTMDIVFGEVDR
Chain of B. taurus (heart) complex I (P03887 whole entry): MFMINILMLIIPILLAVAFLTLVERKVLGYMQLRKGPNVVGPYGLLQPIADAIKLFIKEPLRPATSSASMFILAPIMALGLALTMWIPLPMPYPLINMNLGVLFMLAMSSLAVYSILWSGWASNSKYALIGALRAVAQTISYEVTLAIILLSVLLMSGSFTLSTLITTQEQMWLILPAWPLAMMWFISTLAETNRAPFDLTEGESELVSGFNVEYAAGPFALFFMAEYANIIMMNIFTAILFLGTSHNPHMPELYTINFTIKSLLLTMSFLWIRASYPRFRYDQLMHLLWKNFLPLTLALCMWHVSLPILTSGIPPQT
Chain of B. taurus (heart) complex I (P17694 34-463): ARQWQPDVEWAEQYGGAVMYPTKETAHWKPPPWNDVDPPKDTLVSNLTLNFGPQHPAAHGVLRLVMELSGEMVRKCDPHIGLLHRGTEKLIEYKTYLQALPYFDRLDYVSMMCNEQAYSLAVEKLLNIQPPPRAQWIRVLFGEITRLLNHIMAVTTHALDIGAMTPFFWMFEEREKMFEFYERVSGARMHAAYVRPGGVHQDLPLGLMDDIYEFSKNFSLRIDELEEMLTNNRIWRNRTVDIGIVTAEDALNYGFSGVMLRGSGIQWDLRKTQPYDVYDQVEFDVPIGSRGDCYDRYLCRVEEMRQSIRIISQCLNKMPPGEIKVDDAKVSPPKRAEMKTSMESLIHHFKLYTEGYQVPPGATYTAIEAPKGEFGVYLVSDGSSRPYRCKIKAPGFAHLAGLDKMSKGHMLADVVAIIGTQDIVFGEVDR
Chain of B. taurus (heart) complex I (P42026 38-216): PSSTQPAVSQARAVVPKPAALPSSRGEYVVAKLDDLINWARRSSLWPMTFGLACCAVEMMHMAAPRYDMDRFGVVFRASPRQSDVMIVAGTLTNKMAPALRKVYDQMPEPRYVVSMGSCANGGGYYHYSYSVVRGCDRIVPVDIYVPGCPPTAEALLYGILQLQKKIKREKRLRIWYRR

## CC(C)CCSc1nc2ccccc2[nH]1 [Compound 5867913]
L1 wild-type C. elegans; [3]
  Screen "Hit": Y (hits were identified as compounds that reduced relative motility below 0.25 (75% reduction))
L1 wild-type C. elegans; [4]
  Relative Motility: 0.150

## CCOc1ccc(CNc2nc3ccccc3n2CCN(CC)CC)cc1 [Compound 7768813]
L1 wild-type C. elegans; [5]
  Screen "Hit": Y (hits were identified as compounds that reduced relative motility below 0.25 (75% reduction))
L1 wild-type C. elegans; [6]
  Relative Motility: 0.210

## CC(C)(C)c1ccc(Cn2c(N)nc3ccccc32)cc1 [Compound 5564334]
L1 wild-type C. elegans; [7]
  Screen "Hit": Y (hits were identified as compounds that reduced relative motility below 0.25 (75% reduction))
L1 wild-type C. elegans; [4]
  Relative Motility: 0.130

## c1ccc(Cn2c(-c3cncs3)nc3ccccc32)cc1 [Compound 7815425]
L1 wild-type C. elegans; [8]
  Hit: non

## CCCOc1ccc(Cn2c(CO)nc3ccccc32)cc1 [Compound 7356999]
L1 wild-type C. elegans; [9]
  Hit: non

## N#Cc1ccc(CSc2nc3ccc(Br)cc3[nH]2)cc1 [Compound 6726033]
L1 wild-type C. elegans; [5]
  Screen "Hit": Y (hits were identified as compounds that reduced relative motility below 0.25 (75% reduction))
L1 wild-type C. elegans; [6]
  Relative Motility: 0.140

## CCn1c(C)nc2cc(-c3ccccc3)ccc21 [Compound 5160815]
L1 wild-type C. elegans; [3]
  Screen "Hit": Y (hits were identified as compounds that reduced relative motility below 0.25 (75% reduction))
L1 wild-type C. elegans; [4]
  Relative Motility: 0.085

## c1ccc2c(c1)ncn2CCOc1ccc2c(c1)CCC2 [Compound 7925762]
L1 wild-type C. elegans; 50 μM compound, hit = relative motility below 0.25 3 hours after removal of KCN
  Screen "Hit": Y (hits were identified as compounds that reduced relative motility below 0.25 (75% reduction))
L1 wild-type C. elegans; 50 μM compound, worm motility 3 hours after removal of KCN
  Relative Motility: 0.250

## C=CCn1c(/C=C/c2ccccc2OC)nc2ccccc21 [Compound 7121977]
L1 wild-type C. elegans; [7]
  Screen "Hit": Y (hits were identified as compounds that reduced relative motility below 0.25 (75% reduction))
L1 wild-type C. elegans; [4]
  Relative Motility: 0.140

## FC(OC(F)(F)F)c1nc2ccc(Cl)cc2[nH]1 (centres unmarked) [Compound 5119407]
L1 wild-type C. elegans; [8]
  Hit: non

## CCC(C)c1ccccc1OCCn1cnc2ccccc21 (centres unmarked) [Compound 7925137]
L1 wild-type C. elegans; [5]
  Screen "Hit": Y (hits were identified as compounds that reduced relative motility below 0.25 (75% reduction))
L1 wild-type C. elegans; [6]
  Relative Motility: 0.220

## Brc1cc2nc[nH]c2c2ccccc12 [Compound 7873254]
L1 wild-type C. elegans; [3]
  Screen "Hit": Y (hits were identified as compounds that reduced relative motility below 0.25 (75% reduction))

## CCOc1ccc(CNc2nc3ccccc3n2CC)cc1 [Compound 7758171]
L1 wild-type C. elegans; [5]
  Screen "Hit": Y (hits were identified as compounds that reduced relative motility below 0.25 (75% reduction))
L1 wild-type C. elegans; [6]
  Relative Motility: 0.180

## COc1ccc2c(c1)nc(SCc1ccccc1)n2C [Compound 5649512]
L1 wild-type C. elegans; [5]
  Screen "Hit": Y (hits were identified as compounds that reduced relative motility below 0.25 (75% reduction))
L1 wild-type C. elegans; [6]
  Relative Motility: 0.190

## Cc1ccccc1Cn1cnc2ccccc21 [Compound 5656207]
L1 wild-type C. elegans; [9]
  Hit: non

## CCN(CC)CCSc1nc2ccccc2n1Cc1ccccc1 [Compound 5685018]
L1 wild-type C. elegans; [7]
  Screen "Hit": Y (hits were identified as compounds that reduced relative motility below 0.25 (75% reduction))
L1 wild-type C. elegans; [4]
  Relative Motility: 0.220

## C=CCn1c(NCc2ccccc2OC)nc2ccccc21 [Compound 7419109]
L1 wild-type C. elegans; [5]
  Screen "Hit": Y (hits were identified as compounds that reduced relative motility below 0.25 (75% reduction))
L1 wild-type C. elegans; [6]
  Relative Motility: 0.078

## COc1ccc(CSc2nc3ccccc3[nH]2)cc1 [Compound 5568705]
L1 wild-type C. elegans; [5]
  Screen "Hit": Y (hits were identified as compounds that reduced relative motility below 0.25 (75% reduction))
L1 wild-type C. elegans; [6]
  Relative Motility: 0.100

## CCn1c(/C=C/c2ccccc2)nc2ccccc21 [Compound 5958035]
L1 wild-type C. elegans; [7]
  Screen "Hit": Y (hits were identified as compounds that reduced relative motility below 0.25 (75% reduction))
L1 wild-type C. elegans; [4]
  Relative Motility: 0.160

## Fc1cccc(F)c1CSc1nc2ccccc2[nH]1 [Compound 5616951]
L1 wild-type C. elegans; [5]
  Screen "Hit": Y (hits were identified as compounds that reduced relative motility below 0.25 (75% reduction))
L1 wild-type C. elegans; [6]
  Relative Motility: 0.130

## CCCSc1ccc2nc(NC(=O)OC)[nH]c2c1 [Albendazole]
[1]; 0.125 µM
  percent (%) in vitro complex I activity relative to solvent control: 118.853% and 109.086% and 106.962%
[1]; 0.313 µM
  percent (%) in vitro complex I activity relative to solvent control: 114.037% and 108.086% and 98.922%
[1]; 0.625 µM
  percent (%) in vitro complex I activity relative to solvent control: 95.184% and 91.388% and 110.521%
[1]; 1.5 µM
  percent (%) in vitro complex I activity relative to solvent control: 96.241% and 104.509% and 111.883%
[1]; 3 µM
  percent (%) in vitro complex I activity relative to solvent control: 99.535% and 109.848% and 112.347%
[1]; 15 µM
  percent (%) in vitro complex I activity relative to solvent control: 97.910% and 114.555% and 112.953%
[1]; 37.5 µM
  percent (%) in vitro complex I activity relative to solvent control: 89.237% and 107.533% and 106.445%
[1]; 75 µM
  percent (%) in vitro complex I activity relative to solvent control: 100.906% and 79.462% and 105.930% and 106.268%
[1]; [10]
  remaining activity at 0.125 µM: 103%
  remaining activity at 0.313 µM: 104%
  remaining activity at 0.625 µM: 102%
  remaining activity at 1.5 µM: 109%
  remaining activity at 3 µM: 106%
  remaining activity at 15 µM: 106%
  remaining activity at 37.5 µM: 105%
  remaining activity at […]: 108%

## Cc1nn(C)c(Oc2ccccc2)c1C=NOCc1ccc(C(=O)OC(C)(C)C)cc1 [Fenpyroximate, reference compound]
[2]
  IC50: 48 nM
[1]; wild-type (N2) mitochondria, read-out: C. elegans Complex I IC50
  IC50: 21 nM
